Measured values reported in patent US8987314B2, “Amide, urea or sulfone amide linked benzothiazole inhibitors of endothelial lipase” (Bristol-Myers Squibb Company, priority 2012, dated 2015).

Legend:
hepatic lipase (HL) = hepatic lipase (HL) (Homo sapiens (Human), UniProt P11150); test: HL assay: hepatic lipase activity with fluorescent substrate A10070 in DMPG vesicles; format: biochemical
Experimental: Endothelial lipase (EL) and hepatic lipase (HL) activities were measured using a fluorescent substrate, A10070, (Invitrogen, CA) doped into an artificial vesicle containing DMPG (Avanti Polar Lipids) as the excipient. Vesicles were prepared by combining 571 μL of 29 mM DMPG in a 1:1 mixture of MeOH and CHCl3 with 2000 μL of 1 mM A10070 in a 1:1 mixture of MeOH and CHCl3. The mixture was dried under nitrogen in multiple vials then resuspended in 20 mL total volume of 50 mM HEPES pH 8.0 buffer containing 50 mM NaCl and 0.2 mM EDTA. The sample was allowed to sit at room temperature for 15 min and then was sonicated 3×4 mins on ice with a Branson Sonicator using duty cycle 1. This preparation provides vesicles with a mole fraction of 0.11 for the FRET substrate.
The enzymatic assay was measured using 384-well white Optiplates. Each well contained 20 μL of assay buffer (50 mM HEPES pH 8.0, 50 mM NaCl and 1 mM CaCl2) and 0.25 μL of a DMSO solution containing a compound of interest. EL or HL (10 μL) was added and allowed to incubate with the compound for 30 min at 37° C. The source of EL was conditioned media obtained from HT-1080 cells that were transformed using RAGE technology (Athersys) to overexpress endogenous EL, and HL was partially purified from conditioned media obtained from COS cells overexpressing HL. The reaction was started by the addition of 10 μL of a 1:10 dilution of vesicles. The final total reaction volume was […]. The reaction rates were measured on a Gemini plate reader with an excitation wavelength of 490 nm and an emission wavelength of 530 nm. Readings were taken over a period of 60 minutes, and the slope between 300 and 900 secs of the readout was used to calculate the rate of the reaction.

Endothelial lipase (EL) = Endothelial lipase (EL) (Homo sapiens (Human), UniProt Q9Y5X9); test: EL assay: endothelial lipase activity with fluorescent substrate A10070 in DMPG vesicles; format: biochemical
Sequence of Endothelial lipase (EL) (Q9Y5X9 21-500): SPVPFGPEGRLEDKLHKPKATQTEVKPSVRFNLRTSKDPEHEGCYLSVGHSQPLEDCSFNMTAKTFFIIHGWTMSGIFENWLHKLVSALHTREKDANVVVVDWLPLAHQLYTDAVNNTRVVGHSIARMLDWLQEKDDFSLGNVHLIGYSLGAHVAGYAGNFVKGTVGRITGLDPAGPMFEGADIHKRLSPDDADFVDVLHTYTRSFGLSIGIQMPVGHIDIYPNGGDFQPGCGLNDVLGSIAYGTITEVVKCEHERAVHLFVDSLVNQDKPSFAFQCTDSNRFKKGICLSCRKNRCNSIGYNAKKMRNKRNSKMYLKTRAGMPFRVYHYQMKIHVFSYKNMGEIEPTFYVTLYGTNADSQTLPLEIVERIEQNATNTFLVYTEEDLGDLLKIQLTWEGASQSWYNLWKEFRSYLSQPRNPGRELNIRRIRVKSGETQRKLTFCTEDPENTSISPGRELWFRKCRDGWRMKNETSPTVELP
Outline: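 Substrate A10070 sits in sonicated DMPG vesicles at 0.11 mole fraction. Lipase and compound preincubated 30 min, 37° C, in HEPES pH 8.0 buffer with CaCl2.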

Sequence of hepatic lipase (HL) (P11150 23-499, species assumed): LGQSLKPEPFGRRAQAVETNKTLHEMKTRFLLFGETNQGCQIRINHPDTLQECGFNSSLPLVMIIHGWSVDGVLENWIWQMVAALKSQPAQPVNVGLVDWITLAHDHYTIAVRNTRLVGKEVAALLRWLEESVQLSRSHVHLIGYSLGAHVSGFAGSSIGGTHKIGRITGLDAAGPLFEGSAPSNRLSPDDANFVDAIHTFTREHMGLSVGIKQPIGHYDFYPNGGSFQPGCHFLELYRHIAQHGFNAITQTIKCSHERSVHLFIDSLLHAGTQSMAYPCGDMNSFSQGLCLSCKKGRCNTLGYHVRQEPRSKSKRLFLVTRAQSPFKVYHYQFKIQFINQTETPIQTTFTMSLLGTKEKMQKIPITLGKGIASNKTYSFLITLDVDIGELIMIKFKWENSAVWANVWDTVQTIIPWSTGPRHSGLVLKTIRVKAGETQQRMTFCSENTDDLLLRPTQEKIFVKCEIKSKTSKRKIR

IC50 (hepatic lipase (HL)) [nM]	IC50 (Endothelial lipase (EL)) [nM]	Structure (SMILES)
< 10	< 10	CS(=O)(=O)C(C(=O)NCCS(N)(=O)=O)c1nc2ccc(-c3cnn(-c4ccc(F)cc4)c3)cc2s1 (stereo not drawn) [Example B74, 2-(6-(1-(4-fluorophenyl)-1H-pyrazol-4-yl)-1,3-benzothiazol-2-yl)-2-(methylsulfonyl)-N-(2-sulfamoylethyl)acetamide]
25000	< 10	NS(=O)(=O)CCNC(=O)C(c1nc2ccc(-c3cnn(CCN4CCOCC4)c3)cc2s1)S(=O)(=O)Cc1ccc(F)cc1 (stereo not drawn) [Example B75, 2-((4-fluorobenzyl)sul-fonyl)-2-(6-(1-(2-(4-morpholinyl)ethyl)-1H-pyrazol-4-yl)-1,3-benzothiazol-2-yl)-N-(2-sulfamoylethyl)acetamide]
21	< 10	CC(C)(C)OC(=O)N1CCC(n2cc(-c3ccc4nc(C(C(=O)NCCS(N)(=O)=O)S(C)(=O)=O)sc4c3)cn2)CC1 (stereo not drawn) [Example B76, tert-butyl 4-(4-(2-(1-(methylsulfonyl)-2-oxo-2-((2-sulfamoyl-ethyl)amino)ethyl)-1,3-benzothiazol-6-yl)-1H-pyrazol-1-yl)-1-piperidinecarboxylate]
2260	< 10	NS(=O)(=O)CCNC(=O)C(c1nc2ccc(-c3cnn(CCN4CCOCC4)c3)cc2s1)S(=O)(=O)CC1CC1 (stereo not drawn) [Example B77, 2-[(cyclopropylmethyl)sul-fonyl]-2-(6-{1-[2-(4-morpholinyl)ethyl]-1H-pyrazol-4-yl}-1,3-benzothiazol-2-yl)-N-(2-sulfamoylethyl)acetamide]
68	< 10	CS(=O)(=O)C(C(=O)NCCS(N)(=O)=O)c1nc2ccc(-c3c[nH]nc3C(F)(F)F)cc2s1 (stereo not drawn) [Example B78, 2-(methylsulfonyl)-N-(2-sulfamoylethyl)-2-(6-(3-(trifluoromethyl)-1H-pyrazol-4-yl)-1,3-benzothiazol-2-yl)a-cetamide]
< 10	< 10	COc1cccc(-c2ccc3nc(C(C(=O)NCCS(N)(=O)=O)S(C)(=O)=O)sc3c2)c1 (stereo not drawn) [Example B79, 2-(6-(3-methoxyphenyl)-1,3-benzothiazol-2-yl)-2-(methylsulfonyl)-N-(2-sulfamoylethyl)acetamide]
< 10	< 10	Cc1nnc(CNC(=O)C(c2nc3cc(C)c(-c4ccc(F)nc4)cc3s2)S(C)(=O)=O)o1 (stereo not drawn) [Example B80, 2-[6-(6-fluoro-3-pyridinyl)-5-methyl-1,3-benzothiazol-2-yl]-N-[(5-methyl-1,3,4-oxadiazol-2-yl)methyl]-2-(methylsulfonyl)acetamide]
196	14	Cc1nnc(CNC(=O)C(c2nc3cc(C)c(-c4ccc(C(=O)N5CCOCC5)cc4)cc3s2)S(C)(=O)=O)o1 (stereo not drawn) [Example B81, 2-{5-methyl-6-[4-(4-morpholinylcarbonyl)phen-yl]-1,3-benzothiazol-2-yl}-N-[(5-methyl-1,3,4-oxadiazol-2-yl)methyl]-2-(methylsulfonyl)acetamide]
177	85	Cc1nnc(CNC(=O)C(c2nc3cc(C)c(-c4ccccc4)cc3s2)S(C)(=O)=O)o1 (stereo not drawn) [Example B82, N-((5-methyl-1,3,4-oxadiazol-2-yl)methyl)-2-(5-methyl-6-phenyl-1,3-benzothiazol-2-yl)-2-(methylsulfonyl)acetamide]
229	77	Cc1nnc(CNC(=O)C(c2nc3cc(C)c(-c4cnn(CCN5CCOCC5)c4)cc3s2)S(C)(=O)=O)o1 (stereo not drawn) [Example B83, 2-(5-methyl-6-(1-(2-(4-morpholinyl)ethyl)-1H-pyrazol-4-yl)-1,3-benzothiazol-2-yl)-N-((5-methyl-1,3,4-oxadiazol-2-yl)methyl)-2-(methylsulfonyl)acetamide]
350	34	Cc1nnc(CNC(=O)C(c2nc3cc(C)c(-c4ccc(N5CCNCC5)cc4)cc3s2)S(C)(=O)=O)o1 (stereo not drawn) [Example B84, N-((5-methyl-1,3,4-oxadiazol-2-yl)methyl)-2-(5-methyl-6-(4-(piperazin-1-yl)phenyl)-1,3-benzothiazol-2-yl)-2-(methylsulfonyl)acetamide]
124	11	Cc1nnc(CNC(=O)C(c2nc3cc(C)c(-c4ccc5c(c4)CCC(=O)N5)cc3s2)S(C)(=O)=O)o1 (stereo not drawn) [Example B85, N-((5-methyl-1,3,4-oxadiazol-2-yl)methyl)-2-(5-methyl-6-(2-oxo-1,2,3,4-tetrahydro-6-quinolinyl)-1,3-benzothiazol-2-yl)-2-(methylsulfonyl)acetamide]
494	< 10	CS(=O)(=O)C(C(=O)NCCS(N)(=O)=O)c1nc2cc(-c3ccc(C(=O)N4CCOCC4)cc3)ccc2s1 (stereo not drawn) [Example B86, 2-(methylsulfonyl)-2-(5-(4-(4-morpholinylcarbonyl)phen-yl)-1,3-benzothiazol-2-yl)-N-(2-sulfamoylethyl)a-cetamide]
2.6	0.5	COc1ccc(-c2ccc3sc(C(C(=O)NCCS(N)(=O)=O)S(C)(=O)=O)nc3c2)cn1 (stereo not drawn) [Example B87, 2-(5-(6-methoxy-3-pyridinyl)-1,3-benzothiazol-2-yl)-2-(methylsulfonyl)-N-(2-sulfamoylethyl)acetamide]
2.2	0.5	COc1cc(-c2ccc3sc(C(C(=O)NCCS(N)(=O)=O)S(C)(=O)=O)nc3c2)ccn1 (stereo not drawn) [Example B88, 2-(5-(2-methoxy-4-pyridinyl)-1,3-benzothiazol-2-yl)-2-(methylsulfonyl)-N-(2-sulfamoylethyl)acetamide]
70	4.4	CS(=O)(=O)C(C(=O)NCCS(N)(=O)=O)c1nc2cc(-c3cncnc3)ccc2s1 (stereo not drawn) [Example B89, 2-(methylsulfonyl)-2-(5-(5-pyrimidinyl)-1,3-benzothiazol-2-yl)-N-(2-sulfamoylethyl)acetamide]
100	< 10	COCCn1cc(-c2ccc3sc(C(C(=O)NCCS(N)(=O)=O)S(C)(=O)=O)nc3c2)cn1 (stereo not drawn) [Example B90, 2-(5-(1-(2-methoxyethyl)-1H-pyrazol-4-yl)-1,3-benzothiazol-2-yl)-2-(methylsulfonyl)-N-(2-sulfamoylethyl)acetamide]
1800	< 10	CS(=O)(=O)C(C(=O)NCCS(N)(=O)=O)c1nc2cc(-c3cnn(CCN4CCOCC4)c3)ccc2s1 (stereo not drawn) [Example B91, 2-(methylsulfonyl)-2-(5-(1-(2-(4-morpholinyl)ethyl)-1H-pyrazol-4-yl)-1,3-benzothiazol-2-yl)-N-(2-sulfamoylethyl)acetamide]
< 10	< 10	CS(=O)(=O)C(C(=O)NCCS(N)(=O)=O)c1nc2cc(-c3ccccc3)ccc2s1 (stereo not drawn) [Example B92, 2-(methylsulfonyl)-2-(5-phenyl-1,3-benzothiazol-2-yl)-N-(2-sulfamoylethyl)a-cetamide]
7.1	0.5	COCCNC(=O)c1ccc(-c2ccc3sc(C(C(=O)NCCS(N)(=O)=O)S(C)(=O)=O)nc3c2)cc1 (stereo not drawn) [Example B93, N-(2-methoxyethyl)-4-(2-(1-(methylsulfonyl)-2-oxo-2-((2-sulfamoylethyl)a-mino)ethyl)-1,3-benzothiazol-5-yl)ben-zamide]
123	< 10	CS(=O)(=O)C(C(=O)NCCS(N)(=O)=O)c1nc2cc(-c3ccc(C(=O)NCCO)cc3)ccc2s1 (stereo not drawn) [Example B94, N-(2-hydroxyethyl)-4-(2-(1-(methylsulfonyl)-2-oxo-2-((2-sulfamoylethyl)a-mino)ethyl)-1,3-benzothiazol-5-yl)ben-zamide]
70	< 10	CS(=O)(=O)C(C(=O)NCCS(N)(=O)=O)c1nc2cc(-c3ccnc(F)c3)ccc2s1 (stereo not drawn) [Example B95, 2-[5-(2-fluoro-4-pyridinyl)-1,3-benzothiazol-2-yl]-2-(methylsulfonyl)-N-(2-sulfamoylethyl)acetamide]
251	27	Cc1nnc(CNC(=O)C(c2nc3cc(C)c(-c4ccc(C(=O)N5CCOCC5)cc4)cc3s2)S(=O)(=O)Cc2ccccc2)o1 (stereo not drawn) [Example B96, 2-(benzylsulfonyl)-2-(5-methyl-6-(4-(4-morpholinylcarbonyl)phen-yl)-1,3-benzothiazol-2-yl)-N-((5-methyl-1,3,4-oxadiazol-2-yl)methyl)a-cetamide]
57	24	COc1ccc(-c2cc3sc(C(C(=O)NCc4nnc(C)o4)S(=O)(=O)Cc4ccccc4)nc3cc2C)cn1 (stereo not drawn) [Example B97, 2-(benzylsulfonyl)-2-(6-(6-methoxy-3-pyridinyl)-5-methyl-1,3-benzothiazol-2-yl)-N-((5-methyl-1,3,4-oxadiazol-2-yl)methyl)a-cetamide]
